Results reported in publication PMC5218480 (PLoS ONE, 2017).

Tested on: MV-4-11 cells
Experiment: Gene expression microarray analysis (Affymetrix PrimeView) and GSEA
Assay type: cell-based, human
Design: RFU PODN (11730768_x_at) / Fold change /veh PODN (11730768_x_at) / RFU LINC00158 (11744669_a_at) / Fold change /veh LINC00158 (11744669_a_at) / RFU DUSP10 (11751237_a_at) / Fold change /veh DUSP10 (11751237_a_at) / RFU ID3 (11757404_x_at) / Fold change /veh ID3 (11757404_x_at) / RFU PLEKHG5 (11737974_s_at) / Fold change /veh PLEKHG5 (11737974_s_at) / RFU LRRC4B (11730491_at) / Fold change /veh LRRC4B (11730491_at) / RFU GIMAP4 (11747438_a_at) / Fold change /veh GIMAP4 (11747438_a_at) / RFU KRT8 (11758183_x_at) / Fold change /veh KRT8 (11758183_x_at) / RFU CNN1 (11734310_a_at) / Fold change /veh CNN1 (11734310_a_at) / RFU VPS37D (11726825_at) / Fold change /veh VPS37D (11726825_at) / RFU C10orf10 (11716522_x_at) / Fold change /veh C10orf10 (11716522_x_at) / RFU KIR2DL2 /// KIR2DL4 /// KIR2DL5A /// KIR2DL5B /// KIR2DS1 /// KIR2DS2 /// KIR2DS3 /// KIR2DS4 /// KIR3DL3 /// KIR3DL3 /// KIR3DS1 (11738374_at) / Fold change /veh KIR2DL2 /// KIR2DL4 /// KIR2DL5A /// KIR2DL5B /// KIR2DS1 /// KIR2DS2 /// KIR2DS3 /// KIR2DS4 /// KIR3DL3 /// KIR3DL3 /// KIR3DS1 (11738374_at) / RFU C1QL1 (11718748_at) / Fold change /veh C1QL1 (11718748_at) / RFU TMPRSS4 (11747572_a_at) / Fold change /veh TMPRSS4 (11747572_a_at) / RFU HAMP (11756126_x_at) / Fold change /veh HAMP (11756126_x_at) / RFU RNFT2 (11725882_a_at) / Fold change /veh RNFT2 (11725882_a_at) / RFU NR4A2 (11747474_a_at) / Fold change /veh NR4A2 (11747474_a_at) / RFU ABCC12 (11746883_a_at) / Fold change /veh ABCC12 (11746883_a_at) / RFU TMEM136 (11760407_x_at) / Fold change /veh TMEM136 (11760407_x_at) / RFU CLDN22 /// WWC2 (11732394_at) / Fold change /veh CLDN22 /// WWC2 (11732394_at) / RFU HLA-DPB1 (11760878_x_at) / Fold change /veh HLA-DPB1 (11760878_x_at) / RFU SPINT1 (11716480_a_at) / Fold change /veh SPINT1 (11716480_a_at) / RFU GAP43 (11754022_s_at) / Fold change /veh GAP43 (11754022_s_at) / RFU A4GNT (11735810_at) / Fold change /veh A4GNT (11735810_at) / RFU PRB3 (11715151_x_at) / Fold change /veh PRB3 (11715151_x_at) / RFU TUBB4B (11761932_at) / Fold change /veh TUBB4B (11761932_at) / RFU CAPN14 (11732068_a_at) / Fold change /veh CAPN14 (11732068_a_at) / RFU TMCC2 (11721928_a_at) / Fold change /veh TMCC2 (11721928_a_at) / RFU IRGQ (11745062_a_at) / Fold change /veh IRGQ (11745062_a_at) / RFU FAM174B (11720279_a_at) / Fold change /veh FAM174B (11720279_a_at) / RFU TMPRSS4 (11748680_a_at) / Fold change /veh TMPRSS4 (11748680_a_at) / RFU FAM212B (11763350_a_at) / Fold change /veh FAM212B (11763350_a_at) / RFU PLEKHG5 (11743358_a_at) / Fold change /veh PLEKHG5 (11743358_a_at) / RFU ZSCAN30 (11745921_a_at) / Fold change /veh ZSCAN30 (11745921_a_at) / RFU CMKLR1 (11741424_a_at) / Fold change /veh CMKLR1 (11741424_a_at) / RFU LOC101060620 /// MAPK8IP1 (11723275_at) / Fold change /veh LOC101060620 /// MAPK8IP1 (11723275_at) / RFU SPTSSB (11747773_x_at) / Fold change /veh SPTSSB (11747773_x_at) / RFU PRSS12 (11739890_at) / Fold change /veh PRSS12 (11739890_at) / RFU BIN1 (11741810_x_at) / Fold change /veh BIN1 (11741810_x_at) / RFU WNT11 (11732464_a_at) / Fold change /veh WNT11 (11732464_a_at) / RFU C10orf10 (11716521_a_at) / Fold change /veh C10orf10 (11716521_a_at) / RFU C5orf56 (11738089_at) / Fold change /veh C5orf56 (11738089_at) / RFU CYB561 (11721691_x_at) / Fold change /veh CYB561 (11721691_x_at) / RFU ANKRD19P (11752326_a_at) / Fold change /veh ANKRD19P (11752326_a_at) / RFU OR2T12 /// OR2T33 /// OR2T8 (11738714_s_at) / Fold change /veh OR2T12 /// OR2T33 /// OR2T8 (11738714_s_at) / RFU VCAN (11748164_a_at) / Fold change /veh VCAN (11748164_a_at) / RFU JSRP1 (11732532_at) / Fold change /veh JSRP1 (11732532_at) / RFU KRTAP10-11 (11738290_x_at) / Fold change /veh KRTAP10-11 (11738290_x_at) / RFU MYO3A (11730013_a_at) / Fold change /veh MYO3A (11730013_a_at) / RFU EBF3 (11725865_a_at) / Fold change /veh EBF3 (11725865_a_at) / RFU CAMK2N1 (11719241_x_at) / Fold change /veh CAMK2N1 (11719241_x_at) / RFU C5orf56 (11738088_a_at) / Fold change /veh C5orf56 (11738088_a_at) / RFU OLFML3 (11715873_a_at) / Fold change /veh OLFML3 (11715873_a_at) / RFU LOC100653217 /// NTM (11731650_a_at) / Fold change /veh LOC100653217 /// NTM (11731650_a_at) / RFU MAPK11 (11762145_a_at) / Fold change /veh MAPK11 (11762145_a_at) / RFU FIZ1 (11724087_x_at) / Fold change /veh FIZ1 (11724087_x_at) / RFU OASL (11726364_x_at) / Fold change /veh OASL (11726364_x_at) / RFU SOX15 (11748057_x_at) / Fold change /veh SOX15 (11748057_x_at) / RFU CD79A (11719716_a_at) / Fold change /veh CD79A (11719716_a_at) / RFU HIST1H1D (11736915_at) / Fold change /veh HIST1H1D (11736915_at) / RFU CASKIN2 (11723855_a_at) / Fold change /veh CASKIN2 (11723855_a_at) / RFU LOC730098 (11760151_x_at) / Fold change /veh LOC730098 (11760151_x_at) / RFU OR4N2 (11742367_at) / Fold change /veh OR4N2 (11742367_at) / RFU PRRT2 (11749266_a_at) / Fold change /veh PRRT2 (11749266_a_at) / RFU SNX32 (11753110_a_at) / Fold change /veh SNX32 (11753110_a_at) / RFU CDHR5 (11726645_a_at) / Fold change /veh CDHR5 (11726645_a_at) / RFU RCAN1 (11760418_a_at) / Fold change /veh RCAN1 (11760418_a_at) / RFU FAM167A (11723789_a_at) / Fold change /veh FAM167A (11723789_a_at) / RFU FAM26E (11764081_at) / Fold change /veh FAM26E (11764081_at) / RFU ISYNA1 (11749810_s_at) / Fold change /veh ISYNA1 (11749810_s_at) / RFU ACY1 (11761880_at) / Fold change /veh ACY1 (11761880_at) / RFU 11764098_at / Fold change /veh 11764098_at / RFU SAMD14 (11745864_x_at) / Fold change /veh SAMD14 (11745864_x_at) / RFU NPB (11741838_a_at) / Fold change /veh NPB (11741838_a_at) / RFU TMPRSS6 (11731388_a_at) / Fold change /veh TMPRSS6 (11731388_a_at) / RFU KRTAP10-2 (11738614_at) / Fold change /veh KRTAP10-2 (11738614_at) / RFU ARHGAP8 /// PRR5-ARHGAP8 (11727945_x_at) / Fold change /veh ARHGAP8 /// PRR5-ARHGAP8 (11727945_x_at) / RFU KRTAP5-7 /// NADSYN1 (11734609_at) / Fold change /veh KRTAP5-7 /// NADSYN1 (11734609_at) / RFU RASL12 (11751679_a_at) / Fold change /veh RASL12 (11751679_a_at) / RFU CDKN2B (11736163_a_at) / Fold change /veh CDKN2B (11736163_a_at) / RFU PRF1 (11729649_at) / Fold change /veh PRF1 (11729649_at) / RFU, ZNF638 /// ZNF638-IT1 / Fold change vs veh, ZNF638 /// ZNF638-IT1 / RFU, PANK3 / Fold change vs veh, PANK3 / RFU, SH3YL1 / Fold change vs veh, SH3YL1 / RFU, ZEB2 / Fold change vs veh, ZEB2 / RFU, NRIP1 / Fold change vs veh, NRIP1 / RFU, PTTG1IP / Fold change vs veh, PTTG1IP / RFU, CAPN2 / Fold change vs veh, CAPN2 / RFU, MED14 / Fold change vs veh, MED14 / RFU, SNORA58 / Fold change vs veh, SNORA58 / RFU, C1orf63 / Fold change vs veh, C1orf63 / RFU, LRRFIP1 / Fold change vs veh, LRRFIP1 / RFU, NDUFAF7 / Fold change vs veh, NDUFAF7 / RFU, SLC12A2 / Fold change vs veh, SLC12A2 / RFU, IBTK / Fold change vs veh, IBTK / RFU, ESF1 / Fold change vs veh, ESF1 / Fold change vs veh, TMEM50B / RFU, TAOK1 / Fold change vs veh, TAOK1 / RFU, ACBD3 / Fold change vs veh, ACBD3 / RFU, TMA16 / Fold change vs veh, TMA16 / RFU, RWDD3 / Fold change vs veh, RWDD3 / RFU, BCAT1 / Fold change vs veh, BCAT1 / RFU, EDEM3 / Fold change vs veh, EDEM3 / RFU, TMEM33 / Fold change vs veh, TMEM33 / RFU, WDR75 / Fold change vs veh, WDR75 / RFU, AHCTF1 / Fold change vs veh, AHCTF1 / RFU, TFRC / Fold change vs veh, TFRC / RFU, ZDHHC17 / Fold change vs veh, ZDHHC17 / RFU, NOM1 / Fold change vs veh, NOM1 / RFU, ARL8B / Fold change vs veh, ARL8B / RFU, ZBTB11 / Fold change vs veh, ZBTB11 / RFU, TAMM41 / Fold change vs veh, TAMM41 / RFU, KIAA1704 /// LOC100996395 / Fold change vs veh, KIAA1704 /// LOC100996395 / RFU, ING1 / Fold change vs veh, ING1 / RFU, TRMT61B / Fold change vs veh, TRMT61B / RFU, FUBP3 / Fold change vs veh, FUBP3 / RFU, TP53 / Fold change vs veh, TP53 / RFU, TNKS2 / Fold change vs veh, TNKS2 / RFU, ZFP14 / Fold change vs veh, ZFP14 / RFU, ACTR2 / Fold change vs veh, ACTR2 / RFU, PPP3R1 / Fold change vs veh, PPP3R1 / RFU, PIK3R1 / Fold change vs veh, PIK3R1 / RFU, HNRNPA1 / Fold change vs veh, HNRNPA1 / RFU, RNF170 / Fold change vs veh, RNF170 / RFU, ZNF28 / Fold change vs veh, ZNF28 / RFU, RNGTT / Fold change vs veh, RNGTT / RFU, OGT / Fold change vs veh, OGT / RFU, BRD1 / Fold change vs veh, BRD1 / RFU, MARS / Fold change vs veh, MARS / RFU, ZNF655 / Fold change vs veh, ZNF655 / RFU, FAHD1 / Fold change vs veh, FAHD1 / RFU, BDP1 / Fold change vs veh, BDP1 / RFU, LRRCC1 / Fold change vs veh, LRRCC1 / RFU, ARID1A / Fold change vs veh, ARID1A / RFU, ZNF146 / Fold change vs veh, ZNF146 / RFU, ZNF330 / Fold change vs veh, ZNF330 / RFU, GPN3 / Fold change vs veh, GPN3 / RFU, C9orf123 / Fold change vs veh, C9orf123 / RFU, N4BP2L2 / Fold change vs veh, N4BP2L2 / RFU, ARFIP1 / Fold change vs veh, ARFIP1 / RFU, FAM179B / Fold change vs veh, FAM179B / RFU, BCL10 / Fold change vs veh, BCL10 / RFU, UHRF1BP1L / Fold change vs veh, UHRF1BP1L / RFU, BET1 / Fold change vs veh, BET1 / RFU, CNOT2 / Fold change vs veh, CNOT2 / RFU, ZNF268 / Fold change vs veh, ZNF268 / Fold change vs veh, ZNF507 / RFU, DGCR2 / Fold change vs veh, DGCR2 / RFU, WDSUB1 / Fold change vs veh, WDSUB1 / Fold change vs veh, HSP90B1 /// MIR3652 / RFU, ADSS / Fold change vs veh, ADSS / RFU, GK / Fold change vs veh, GK / RFU, ZNF148 / Fold change vs veh, ZNF148 / RFU, TAF9 / Fold change vs veh, TAF9 / RFU, SLC1A5 / Fold change vs veh, SLC1A5 / RFU, SLMO2 / Fold change vs veh, SLMO2 / RFU, ABCC4 / Fold change vs veh, ABCC4 / RFU, LOC101060439 /// RAP1B / Fold change vs veh, LOC101060439 /// RAP1B / RFU, RFX7 / Fold change vs veh, RFX7 / RFU, GTPBP10 / Fold change vs veh, GTPBP10 / RFU, CNEP1R1 / Fold change vs veh, CNEP1R1 / RFU, BIVM-ERCC5 /// ERCC5 / Fold change vs veh, BIVM-ERCC5 /// ERCC5 / RFU, ILF3 / Fold change vs veh, ILF3 / RFU 11762660_at / Fold change /veh 11762660_at / RFU VCAN (11757783_s_at) / Fold change /veh VCAN (11757783_s_at) / RFU DDX43 (11728927_at) / Fold change /veh DDX43 (11728927_at) / RFU KRT8 (11758188_x_at) / Fold change /veh KRT8 (11758188_x_at) / RFU NKD1 (11759106_at) / Fold change /veh NKD1 (11759106_at) / RFU SRD5A1 (11742802_a_at) / Fold change /veh SRD5A1 (11742802_a_at) / RFU TPSAB1 /// TPSB2 (11721975_s_at) / Fold change /veh TPSAB1 /// TPSB2 (11721975_s_at) / RFU GSTM3 (11746129_a_at) / Fold change /veh GSTM3 (11746129_a_at) / RFU IL23R (11737362_x_at) / Fold change /veh IL23R (11737362_x_at) / RFU TMEM51 (11727254_a_at) / Fold change /veh TMEM51 (11727254_a_at) / RFU PIWIL2 (11732686_x_at) / Fold change /veh PIWIL2 (11732686_x_at) / RFU ORM1 (11744905_x_at) / Fold change /veh ORM1 (11744905_x_at) / RFU CCDC152 (11743942_at) / Fold change /veh CCDC152 (11743942_at) / RFU ECM1 (11717891_a_at) / Fold change /veh ECM1 (11717891_a_at) / RFU IL23R (11748794_a_at) / Fold change /veh IL23R (11748794_a_at) / RFU TNFAIP8L3 (11732012_x_at) / Fold change /veh TNFAIP8L3 (11732012_x_at) / RFU MBOAT4 (11741988_at) / Fold change /veh MBOAT4 (11741988_at) / RFU 11764193_at / Fold change /veh 11764193_at / RFU TMEM53 (11763286_at) / Fold change /veh TMEM53 (11763286_at) / RFU MAGEB2 (11727129_at) / Fold change /veh MAGEB2 (11727129_at) / RFU TMEM200A (11744735_a_at) / Fold change /veh TMEM200A (11744735_a_at) / RFU CCDC152 (11751479_a_at) / Fold change /veh CCDC152 (11751479_a_at) / RFU FAM211A (11726209_a_at) / Fold change /veh FAM211A (11726209_a_at) / RFU RGS16 (11746705_a_at) / Fold change /veh RGS16 (11746705_a_at) / RFU VCAN (11755009_s_at) / Fold change /veh VCAN (11755009_s_at) / RFU RHOB (11743442_s_at) / Fold change /veh RHOB (11743442_s_at) / RFU RGS16 (11720943_a_at) / Fold change /veh RGS16 (11720943_a_at) / RFU RGS16 (11720944_at) / Fold change /veh RGS16 (11720944_at) / RFU, VPS4B / Fold change vs veh, VPS4B / RFU, CREB1 / Fold change vs veh, CREB1 / RFU, DNAJC13 / Fold change vs veh, DNAJC13 / RFU, GNAQ / Fold change vs veh, GNAQ / RFU, CDK5R1 / Fold change vs veh, CDK5R1 / RFU, ZRANB3 / Fold change vs veh, ZRANB3 / RFU, CUL4A / Fold change vs veh, CUL4A / RFU, CCNY / Fold change vs veh, CCNY / RFU, UFL1 / Fold change vs veh, UFL1 / RFU, COG3 / Fold change vs veh, COG3 / RFU, DIAPH2 / Fold change vs veh, DIAPH2 / RFU, SKA2 / Fold change vs veh, SKA2 / RFU, AFF3 / Fold change vs veh, AFF3 / RFU, LMF1 / Fold change vs veh, LMF1 / RFU, IPO11 / Fold change vs veh, IPO11 / RFU, DFFB / Fold change vs veh, DFFB / RFU, FOXP1 / Fold change vs veh, FOXP1 / RFU, CARD8 / Fold change vs veh, CARD8 / RFU, STRN3 / Fold change vs veh, STRN3 / RFU, ADK / Fold change vs veh, ADK / RFU, RASSF2 / Fold change vs veh, RASSF2 / RFU, WIPF1 / Fold change vs veh, WIPF1 / RFU, LARP1B / Fold change vs veh, LARP1B / RFU, RASA1 / Fold change vs veh, RASA1 / RFU, RB1 / Fold change vs veh, RB1 / RFU, PPFIA1 / Fold change vs veh, PPFIA1 / RFU, MAT2A / Fold change vs veh, MAT2A / RFU, CCT5 / Fold change vs veh, CCT5 / RFU, WDR92 / Fold change vs veh, WDR92 / RFU, CUX1 / Fold change vs veh, CUX1 / RFU, TTC7A / Fold change vs veh, TTC7A / RFU, TMEM135 / Fold change vs veh, TMEM135 / RFU, DEPTOR / Fold change vs veh, DEPTOR / RFU, CPM / Fold change vs veh, CPM / RFU, DNAJB6 / Fold change vs veh, DNAJB6 / RFU, CACNA2D3 / Fold change vs veh, CACNA2D3 / RFU, DTX4 / Fold change vs veh, DTX4 / RFU, TFCP2 / Fold change vs veh, TFCP2 / RFU, GMCL1 /// GMCL1P1 / Fold change vs veh, GMCL1 /// GMCL1P1 / RFU, AEBP2 / Fold change vs veh, AEBP2 / RFU, SNHG1 /// SNORD22 /// SNORD25 /// SNORD26 /// SNORD27 /// SNORD28 /// SNORD29 /// SNORD31 / Fold change vs veh, SNHG1 /// SNORD22 /// SNORD25 /// SNORD26 /// SNORD27 /// SNORD28 /// SNORD29 /// SNORD31 / Fold change (Aza/veh), C12orf56 (ProbeSet 11735607_a_at) / Fold change (ACY-1035/veh), C12orf56 (ProbeSet 11735607_a_at) / Fold change (Aza/veh), FGFR1OP (ProbeSet 11751329_s_at) / Fold change (ACY-1035/veh), FGFR1OP (ProbeSet 11751329_s_at) / Fold change (Aza/veh), VPS36 (ProbeSet 11739960_a_at) / Fold change (ACY-1035/veh), VPS36 (ProbeSet 11739960_a_at) / RFU SYPL1 (11715823_x_at) / Fold change /veh SYPL1 (11715823_x_at) / RFU IGFBP7 (11715501_s_at) / Fold change /veh IGFBP7 (11715501_s_at) / RFU REEP3 (11722064_at) / Fold change /veh REEP3 (11722064_at) / RFU IGLL1 (11728026_x_at) / Fold change /veh IGLL1 (11728026_x_at): dose or concentration left out as unconfirmed
Conditions: ProbeSet 11740781_a_at; LIST B

Question: For `Nc1ncn([C@@H]2O[C@H](CO)[C@@H](O)[C@H]2O)c(=O)n1` [azacitidine], which “Fold change vs veh, ILF3” value is on record?
Answer: 0.96
